Drawing on BindingDB's records for doi:10.7270/Q2ZC817P (The Scripps Research Institute Molecular Screening Center, 2007), this text covers EC50 for 52 compounds.

Counter-ions that a name gives are not always drawn.

The target in the first assay is Sphingosine 1-phosphate receptor 1 (Homo sapiens, UniProt P21453). As to the kind of experiment: S1P1 agonism potentiation – cell-based, potentiator mode, 60K MLSMR set, dose response (AID 466).
Sequence of Sphingosine 1-phosphate receptor 1 (P21453 whole entry): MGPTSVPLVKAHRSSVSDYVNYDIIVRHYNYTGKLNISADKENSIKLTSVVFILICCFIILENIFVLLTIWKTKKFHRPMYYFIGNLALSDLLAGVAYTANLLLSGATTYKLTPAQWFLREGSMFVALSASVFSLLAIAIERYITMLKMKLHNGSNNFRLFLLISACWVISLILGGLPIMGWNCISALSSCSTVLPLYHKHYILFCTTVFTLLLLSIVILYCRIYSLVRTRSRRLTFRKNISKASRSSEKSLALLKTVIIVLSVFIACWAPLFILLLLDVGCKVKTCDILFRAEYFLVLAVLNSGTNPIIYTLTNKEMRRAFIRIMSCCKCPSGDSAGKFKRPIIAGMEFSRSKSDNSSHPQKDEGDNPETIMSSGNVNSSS
Conditions: not given
The term EC50 denotes the midpoint of the concentration-response curve. Turning to `Cc1ccc2c(c1)[nH]c1c(N3CCN(Cc4ccccc4)CC3)ncnc12` [SMR000044826], the EC50 came out at 3.65 µM.
Regarding `CN=C(NC#N)SCC(=O)c1ccc(Cl)cc1Cl` [[2-(2,4-dichlorophenyl)-2-oxidanylidene-ethyl] N-cyano-N'-methyl-carbamimidothioate], the EC50 was 4.32 µM.
On the same count and under the same terms, then `CC(C)C(c1nnnn1Cc1ccccc1)N(Cc1ccco1)Cc1cccs1` (configuration not stated) [1-(1-benzyltetrazol-5-yl)-N-(furan-2-ylmethyl)-2-methyl-N-(thiophen-2-ylmethyl)propan-1-amine], with above 95 µM.
Turning to `Cc1cc(NC(=O)c2oc3ccccc3c2C)ccc1-n1cnnn1` [3-Methyl-benzofuran-2-carboxylic acid (3-methyl-4-tetrazol-1-yl-phenyl)-amide], the EC50 was 5.53 µM.
In the case of `CCCCn1ccnc1C(=O)c1cccc(S(=O)(=O)N2c3ccccc3CC2C)c1` (configuration not stated) [(1-butyl-2-imidazolyl)-[3-[(2-methyl-2,3-dihydroindol-1-yl)sulfonyl]phenyl]methanone], the EC50 came out at 9.16 µM.
Take `CCC(C)c1ccc2oc(-c3ccc(NC(=O)Cn4cnc5c(=O)n(C)c(=O)n(C)c54)cc3)nc2c1` (configuration not stated) [2-(2,6-diketo-1,3-dimethyl-purin-9-yl)-N-[4-(5-sec-butyl-1,3-benzoxazol-2-yl)phenyl]acetamide]: the EC50 worked out at 1.59 µM.
For `CCc1ccc(NC(=O)c2cc(-c3ccco3)on2)cc1` [MLS000087211], the EC50 amounted to 4.44 µM.
Take `Cc1ccc(-c2csc3ncnc(Sc4nnc(CN5CCCCCC5=O)o4)c23)cc1` [1-[[5-[5-(4-methylphenyl)thieno[2,3-d]pyrimidin-4-yl]sulfanyl-1,3,4-oxadiazol-2-yl]methyl]azepan-2-one]: the EC50 is 2.6 µM.
As to `Cc1ccccc1OCCCCc1c(C)n[nH]c1C` [SMR000103095], the EC50 was 6.51 µM.
As for `CC1=NC(=O)NC(c2ccccc2)C1C(=O)OCc1ccc2c(c1)OCO2` (configuration not stated) [1,3-benzodioxol-5-ylmethyl 6-methyl-2-oxidanylidene-4-phenyl-3,4-dihydro-1H-pyrimidine-5-carboxylate], the EC50 turned out to be 3.42 µM.
With `Cc1nc(NC(C)c2ccccc2)c2oc3ccccc3c2n1` (configuration not stated) [(2-methylbenzofuro[3,2-d]pyrimidin-4-yl)-(1-phenylethyl)amine], the EC50 amounted to 9.78 µM.
As for `O=C(Nc1ccc(N2CCCCC2)c(Cl)c1)c1nnc[nH]1`, the EC50 was 0.879 µM.
For `CCOc1ccccc1OCCCCCc1c(C)n[nH]c1C` [MLS000043342], the 50% effective concentration (EC50) worked out at 1.27 µM.
Turning to `O=C(CSc1nnc(-c2cc3ccccc3cc2O)n1Cc1ccco1)c1ccc(F)cc1` [(3Z)-3-[3-[2-(4-fluorophenyl)-2-oxidanylidene-ethyl]sulfanyl-4-(furan-2-ylmethyl)-1H-1,2,4-triazol-5-ylidene]naphthalen-2-one], the EC50 is 23.1 µM.
For the compound `CC(Oc1ccccc1Br)C(=O)N1CCc2ccccc21` (configuration not stated) [1-[2-(2-bromophenoxy)propanoyl]indoline], the EC50 came to 7.23 µM.
With `COc1ccc(S(=O)(=O)Cc2ccc(C(=O)N3CCN(c4cccc(C)c4C)CC3)o2)cc1` [MLS000120226], the EC50 was above 30 µM.
Same read-out and setting: with `Cc1ccc(C(C)C)c(OCc2ccc(-c3nnco3)cc2)c1` [2-[4-[(2-isopropyl-5-methyl-phenoxy)methyl]phenyl]-1,3,4-oxadiazole] the figure was 1.72 µM; with `Cc1cc(C=Nn2cnnc2)c(C)n1-c1ccc(OCc2ccc(F)cc2)cc1` [MLS000112167], 0.502 µM; with `CC(C)(CC(=O)N1CCN(c2ccc(Cl)cc2)CC1)CC1=NS(=O)(=O)c2ccccc2N1` [1-[4-(4-chlorophenyl)-1-piperazinyl]-4-(1,1-dioxo-4H-1,2,4-benzothiadiazin-3-yl)-3,3-dimethyl-1-butanone], 9.93 µM.
Consider `Cc1csc(SCC(=O)c2cc(C)n(Cc3cccs3)c2C)n1` [1-[2,5-dimethyl-1-(2-thenyl)pyrrol-3-yl]-2-[(4-methylthiazol-2-yl)thio]ethanone], for which the EC50 turned out to be 7.01 µM.
As to `O=C(CSc1nnc(-c2c[nH]c3ccccc23)o1)N(Cc1ccccc1)c1ccc(F)cc1`, the EC50 stood at 0.837 µM.
On to `O=C(CCN1CCc2ccccc2CC1)c1ccc2c(c1)OCCO2` [1-(2,3-dihydro-1,4-benzodioxin-6-yl)-3-(1,2,4,5-tetrahydro-3-benzazepin-3-yl)-1-propanone;hydrochloride], for which the EC50 came out at 12.4 µM.
Regarding `CCn1c(NC(=O)c2cccc(Cn3cc(Cl)cn3)c2)nc2ccccc21` [3-[(4-chloranylpyrazol-1-yl)methyl]-N-(1-ethylbenzimidazol-2-yl)benzamide], the EC50 was above 10 µM.
`CC(=O)Oc1ccc(-n2c(O)c3c(c2O)C2(C)C=CC3(C)O2)cc1` [MLS000107813]: the EC50 was 13.4 µM.
`CN(C)CC(C(=O)c1ccccc1)c1ccccc1` (configuration not stated) [3-(dimethylamino)-1,2-diphenyl-1-propanone;hydrochloride]: the EC50 worked out at 12 µM.
On to `O=S(=O)(C/C(=C/CO)S(=O)(=O)c1ccccc1)c1ccccc1` [(Z)-3,4-bis(benzenesulfonyl)but-2-en-1-ol], for which the EC50 came to 8.68 µM.
`Clc1ccc(OCc2nnc(SCc3nc4ccccc4[nH]3)n2Cc2ccco2)cc1` [2-[[[5-[(4-chlorophenoxy)methyl]-4-(2-furanylmethyl)-1,2,4-triazol-3-yl]thio]methyl]-1H-benzimidazole]: the EC50 worked out at 9.34 µM.
On to `CC(=O)c1c(C)[nH]c(C(=O)OCCCCN2C(=O)c3ccccc3C2=O)c1C` [4-acetyl-3,5-dimethyl-1H-pyrrole-2-carboxylic acid 4-(1,3-dioxo-2-isoindolyl)butyl ester], for which the EC50 was 2.1 µM.
On to `OCC12C=CC(O1)c1c2c(O)n(-c2ccccc2-c2ccccc2)c1O` (configuration not stated) [7-(hydroxymethyl)-2-(2-phenylphenyl)-4,7a-dihydro-3aH-octahydro-1H-4,7-epoxyisoindole-1,3-dione], for which the EC50 stood at 6.82 µM.
For the compound `COc1cccc2sc(Nc3nc(-c4ccccn4)cs3)nc12` [(4-methoxy-1,3-benzothiazol-2-yl)-[4-(2-pyridyl)thiazol-2-yl]amine], the EC50 amounted to 2.64 µM.
`COCCn1c(C)cc(C(=O)CSc2nnc(-c3cccnc3)n2-c2ccccc2F)c1C` [2-[[4-(2-fluorophenyl)-5-(3-pyridinyl)-1,2,4-triazol-3-yl]thio]-1-[1-(2-methoxyethyl)-2,5-dimethyl-3-pyrrolyl]ethanone]: the EC50 was 1.22 µM.
For `Cc1ccccc1-c1nnc(SCc2ccccc2F)o1` [2-[(2-fluorobenzyl)thio]-5-(2-methylphenyl)-1,3,4-oxadiazole], the EC50 is 1.27 µM.
Same read-out and setting: with `COc1ccc(-c2noc(-c3cccc(OC)c3OC)n2)cc1OC` [5-(2,3-dimethoxyphenyl)-3-(3,4-dimethoxyphenyl)-1,2,4-oxadiazole] the figure was 1.02 µM.
Turning to `c1ccc(CNc2ncnc3ccccc23)cc1` [N-benzylquinazolin-4-amine], the concentration for a half-maximal effect (EC50) is 4.27 µM.
Regarding `CCN(C(=O)c1ccc(C(C)(C)C)cc1)c1nnc(Cn2nnc3ccccc32)s1` [MLS000072751], the EC50 stood at 1.82 µM.
As for `NC(=Nc1nc2c(c(=O)[nH]1)CCCC2)Nc1ccccc1` [MLS000078734], the EC50 was determined as 5.87 µM.

The same assay, now with this note: inactive by the depositor's call.
Turning to `CCCn1c(CN2CCN(c3cccc(Cl)c3)CC2)nc2c1c(=O)n(C)c(=O)n2C` [8-[[4-(3-chlorophenyl)-1-piperazinyl]methyl]-1,3-dimethyl-7-propylpurine-2,6-dione], the EC50 was determined as 18.8 µM.
On the same count and under the same terms, with `Cn1nc(CC(=O)Nc2ccc(N3CCN(C(=O)OC(C)(C)C)CC3)cc2)c2ccccc2c1=O` [4-[4-[[2-(3-methyl-4-oxo-1-phthalazinyl)-1-oxoethyl]amino]phenyl]-1-piperazinecarboxylic acid tert-butyl ester] the figure was 14.4 µM; with `CCN(CC)C(=O)Oc1ccc2c(=O)c(-c3ccc(OC)cc3)coc2c1` [MLS000083046], 10.9 µM.
On the same count and under the same terms, with `Cc1nc2ncnn2c(N2CCN(c3cccc(C(F)(F)F)c3)CC2)c1C` [5,6-Dimethyl-7-[4-(3-trifluoromethyl-phenyl)-piperazin-1-yl]-[1,2,4]triazolo[1,5-a]pyrimidine] the figure was 15.4 µM.
With `CCCCOc1ccc(S(=O)(=O)n2c(C)nc3ccccc32)cc1` [1-(4-butoxyphenyl)sulfonyl-2-methyl-benzimidazole], the EC50 was determined as 28.9 µM.
As for `CC(=O)Nc1ccc(S(=O)(=O)N2CCN(CCCOc3cc(C)ccc3C)CC2)cc1` [MLS000050317], the EC50 amounted to 17.5 µM.
Take `CCCOc1ccc(-c2nnc(-c3ccncc3)o2)cc1` [2-(4-propoxyphenyl)-5-(4-pyridyl)-1,3,4-oxadiazole]: the EC50 came to 66.5 µM.
On to `Cc1noc(C)c1S(=O)(=O)N(CC(=O)Nc1ccc2c(c1)OCCO2)c1ccc(C(C)C)cc1` [MLS000117406], for which the half-maximal effective concentration (EC50) amounted to 15.9 µM.
In the case of `Cc1onc(-c2ccccc2Cl)c1C(=O)Oc1cc(N)n(S(=O)(=O)c2ccc(F)cc2)n1` [3-(2-chlorophenyl)-5-methyl-4-isoxazolecarboxylic acid [5-amino-1-(4-fluorophenyl)sulfonyl-3-pyrazolyl] ester], the EC50 worked out at 20 µM.
As for `CCC(C)c1ccc2oc(-c3ccc(NC(=O)c4nnc[nH]4)cc3)nc2c1` (configuration not stated) [N-[4-(5-sec-butyl-1,3-benzoxazol-2-yl)phenyl]-1H-1,2,4-triazole-3-carboxamide], the EC50 came to 12.7 µM.
Turning to `CCCn1c(CNc2ccc(Br)cc2)nc2ccccc21` [(4-bromophenyl)-[(1-propylbenzimidazol-2-yl)methyl]amine], the EC50 turned out to be 12.8 µM.
With `CCOC(=O)c1ccc2nc(NC(=O)c3ccco3)sc2c1` [2-(2-furoylamino)-1,3-benzothiazole-6-carboxylic acid ethyl ester], the EC50 stood at 18.7 µM.
With `CCOC(=O)c1ccc(NC(=O)CCc2nc(-c3ccc(Cl)cc3)no2)cc1` [4-[3-[3-(4-chlorophenyl)-1,2,4-oxadiazol-5-yl]propanoylamino]benzoic acid ethyl ester], the EC50 was found to be 13 µM.
With `Cc1cc(N2CCN(C(c3ccccc3)c3ccccc3)CC2)n2ncnc2n1` [7-(4-benzhydrylpiperazin-1-yl)-5-methyl-[1,2,4]triazolo[1,5-a]pyrimidine], the EC50 was found to be 13.6 µM.
For the compound `O=C(Nc1nc(-c2ccc3c(c2)OCO3)cs1)c1ccncc1` [MLS000073104], the EC50 was 12 µM.
On to `Cc1cc(C(=O)COC(=O)c2csc3c2CCCC3)c(C)n1C` [4,5,6,7-tetrahydro-1-benzothiophene-3-carboxylic acid [2-oxo-2-(1,2,5-trimethyl-3-pyrrolyl)ethyl] ester], for which the EC50 was 17.5 µM.
